Measurements reported in PubChem BioAssay AID1963830 (Molecular Pharmacology Branch, DTP, NCI, 2024).

System: 922993-354-T-J3-PDC complex spheroid viability
Assay: Anticancer human tumor 922993-354-T-J3-PDC patient-derived endometrial carcinoma cell line growth inhibition [POLQ]
Details: for IC50: curve of first compound; for viability, T/C: stronger effect = lower value
How it was run: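 PDC + HUVEC + MSC complex spheroids; POLQ inhibitors ± partner drugs; top conc. at/near clinical Cmax, else 10 microM (SN-38 1 microM), half-log dilutions; 37 degrees C, 5% CO2.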

[1] = second compound 0.0316 µM, first compound 0.0316 µM
[2] = second compound 0.0316 µM, first compound 0.1 µM
[3] = second compound 0.0316 µM, first compound 0.316 µM
[4] = second compound 0.0316 µM, first compound 1 µM
[5] = second compound 0.0316 µM, first compound 3.16 µM
[6] = second compound 0.0316 µM, first compound 10 µM
[7] = second compound 0.1 µM, first compound 0.0316 µM
[8] = second compound 0.1 µM, first compound 0.1 µM
[9] = second compound 0.1 µM, first compound 0.316 µM
[10] = second compound 0.1 µM, first compound 1 µM
[11] = second compound 0.1 µM, first compound 3.16 µM
[12] = second compound 0.1 µM, first compound 10 µM
[13] = second compound 0.316 µM, first compound 0.0316 µM
[14] = second compound 0.316 µM, first compound 0.1 µM
[15] = second compound 0.316 µM, first compound 0.316 µM
[16] = second compound 0.316 µM, first compound 1 µM
[17] = second compound 0.316 µM, first compound 3.16 µM
[18] = second compound 0.316 µM, first compound 10 µM
[19] = second compound 1 µM, first compound 0.0316 µM
[20] = second compound 1 µM, first compound 0.1 µM
[21] = second compound 1 µM, first compound 0.316 µM
[22] = second compound 1 µM, first compound 1 µM
[23] = second compound 1 µM, first compound 3.16 µM
[24] = second compound 1 µM, first compound 10 µM
[25] = second compound 3.16 µM, first compound 0.0316 µM
[26] = second compound 3.16 µM, first compound 0.1 µM
[27] = second compound 3.16 µM, first compound 0.316 µM
[28] = second compound 3.16 µM, first compound 1 µM
[29] = second compound 3.16 µM, first compound 3.16 µM
[30] = second compound 3.16 µM, first compound 10 µM
[31] = second compound 10 µM, first compound 0.0316 µM
[32] = second compound 10 µM, first compound 0.1 µM
[33] = second compound 10 µM, first compound 0.316 µM
[34] = second compound 10 µM, first compound 1 µM
[35] = second compound 10 µM, first compound 3.16 µM
[36] = second compound 10 µM, first compound 10 µM
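Further: spheroids exposed to the agents for one week.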
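Wherever viability, T/C is given: 100% = DMSO vehicle control wells.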

CC(C)n1c(=O)n(C)c2cnc3cc(F)c(-c4ccc(OCCCN5CCCCC5)nc4)cc3c21 + Cc1cccc(N(C)C(=O)C2C(O)CCN2c2nc(C)cc(C(F)(F)F)c2C#N)c1 was tested, and the IC50 (second compound 0.0316 µM) was > 10 µM, the IC50 (second compound 0.1 µM) was > 10 µM and the IC50 (second compound 0.316 µM) was > 10 µM. For the same compound, the IC50 (second compound 1 µM) was > 10 µM, the IC50 (second compound 3.16 µM) was > 10 µM and the IC50 (second compound 10 µM) was > 10 µM. For the same compound, the viability, T/C [1] was 101%, the viability, T/C [2] was 99.8% and the viability, T/C [3] was 99.9%. It also gave a viability, T/C [4] of 106%, a viability, T/C [5] of 97.4% and a viability, T/C [6] of 66.9%. The viability, T/C [7] was 95.3%, the viability, T/C [8] was 108% and the viability, T/C [9] was 108%. It also gave a viability, T/C [10] of 97.9%, a viability, T/C [11] of 81.3% and a viability, T/C [12] of 74.4%. For the same compound, the viability, T/C [13] was 114%, the viability, T/C [14] was 109% and the viability, T/C [15] was 104%. It also gave a viability, T/C [16] of 102%, a viability, T/C [17] of 88.2% and a viability, T/C [18] of 77%. It also gave a viability, T/C [19] of 114%, a viability, T/C [20] of 112% and a viability, T/C [21] of 110%. The viability, T/C [22] was 99.7%, the viability, T/C [23] was 90.7% and the viability, T/C [24] was 68.9%. For the same compound, the viability, T/C [25] was 100%, the viability, T/C [26] was 109% and the viability, T/C [27] was 102%. It also gave a viability, T/C [28] of 90.8%, a viability, T/C [29] of 95.5% and a viability, T/C [30] of 80.3%. It also gave a viability, T/C [31] of 101%, a viability, T/C [32] of 104% and a viability, T/C [33] of 107%. It also gave a viability, T/C [34] of 92.4%, a viability, T/C [35] of 92.3% and a viability, T/C [36] of 70.5%.
CCc1cc2c(N3CCc4c(cc(Cn5ccnc5)cc4-c4cn(C)nc4C(F)(F)F)C3=O)ccnc2c(OC)n1 + Cc1cccc(N(C)C(=O)C2C(O)CCN2c2nc(C)cc(C(F)(F)F)c2C#N)c1 was tested, and the IC50 (second compound 0.0316 µM) was > 10 µM, the IC50 (second compound 0.1 µM) was > 10 µM and the IC50 (second compound 0.316 µM) was > 10 µM. The IC50 (second compound 1 µM) was > 10 µM, the IC50 (second compound 3.16 µM) was > 10 µM and the IC50 (second compound 10 µM) was > 10 µM. For the same compound, the viability, T/C [1] was 105%, the viability, T/C [2] was 107% and the viability, T/C [3] was 107%. It also gave a viability, T/C [4] of 108%, a viability, T/C [5] of 110% and a viability, T/C [6] of 94.1%. It also gave a viability, T/C [7] of 107%, a viability, T/C [8] of 106% and a viability, T/C [9] of 104%. It also gave a viability, T/C [10] of 107%, a viability, T/C [11] of 105% and a viability, T/C [12] of 99%. It also gave a viability, T/C [13] of 104%, a viability, T/C [14] of 100% and a viability, T/C [15] of 107%. It also gave a viability, T/C [16] of 110%, a viability, T/C [17] of 105% and a viability, T/C [18] of 99.5%. It also gave a viability, T/C [19] of 101%, a viability, T/C [20] of 99.4% and a viability, T/C [21] of 108%. For the same compound, the viability, T/C [22] was 109%, the viability, T/C [23] was 102% and the viability, T/C [24] was 107%. For the same compound, the viability, T/C [25] was 102%, the viability, T/C [26] was 107% and the viability, T/C [27] was 106%. The viability, T/C [28] was 106%, the viability, T/C [29] was 107% and the viability, T/C [30] was 98.4%. The viability, T/C [31] was 104%, the viability, T/C [32] was 98.4% and the viability, T/C [33] was 98.8%. The viability, T/C [34] was 102%, the viability, T/C [35] was 98.5% and the viability, T/C [36] was 102%.
